Source: patent US7666635B2, “Process for the preparation of amides” (priority 1997, dated 2010)
Counter-ions that a name gives are not always drawn. Like-named read-outs stand apart in the source and are kept apart here.

Tests used:
[1] = tested on: purified nitrile hydratase from NA40; assay: Substrate specificity of the purified nitrile hydratase; format: biochemical, Amycolatopsis NA40; settings: purified enzyme; 3-cyanopyridine = 100
Protocol: The substrate specificity was determined analogously to Example 2 (1).
1.7 Units of enzyme were added to the reaction mixture (2.0 ml). The reaction mixture contained the respective substrate in 45 mM phosphate buffer (pH 7.0).

[2] = tested on: NA40 nitrile hydratase (resting NA40 cells); assay: Substrate specificity of resting NA40 cells; format: cell-based, Amycolatopsis NA40; settings: resting NA40 cells, 20° C., 10 min; 3-cyanopyridine = 100; substrate concentration per Table 8
Protocol: (3) For determination of the activity of NA40 with respect to a number of substrates, cells having a dry weight of 0.0388 mg were incubated in the buffer described above. The reaction was started by addition of the appropriate substrate and incubated at 20° C. with shaking for 10 min. The reaction was stopped by addition of 0.2 ml of 2 N HCl and the reaction mixture was briefly centrifuged. The supernatant was analysed by means of HPLC or gas chromatography.

[3] = tested on: Rhodococcus GF674; assay: Substrate specificity of the Rhodococcus strains; format: cell-based; settings: Rhodococcus GF674; 3-cyanopyridine = 100
Protocol: (§1) Rhodococcus rhodochrous J1 was cultured for 72 h in the medium described in EP-A 0 307 926. The microorganisms Rhodoccus GF674, GF578, GF270 and GF376 were cultured in the following media at pH 7.0 for up to 96 h:
(§2) Rhodoccus GF674 in a medium comprising yeast extract 1.0 g/l, fructose 5.0 g/l, malt extract 10.0 g/l, acetamide 5.0 g/l, KH2PO4 2.0 g/l, MgSO47H2O 0.5 g/l and CoCl2.6H2O 10.0 mg. Rhodoccus GF578 in a medium containing yeast extract 1.0 g/l, fructose 15.0 g/l, malt extract 10.0 g/l, acetamide 25.0 g/l, KH2PO4 2.0 g/l, MgSO47H2O 0.5 g/l and CoCl2.6H2O 5.0 mg. […] Rhodoccus GF3 76 in a medium containing yeast extract 1.0 g/l, sodium citrate 10.0 g/l, malt extract 15.0 g/l, butyramide 7.5 g/l, KH2PO4 2.0 g/l, MgSO4.7H2O 0.5 g/l and CoCl2.6H2O 15.0 mg.
(§3) The substrate specificity is summarized as relative activity in Table 15.

[4] = tested on: Rhodococcus GF578; assay: Substrate specificity of the Rhodococcus strains; format: cell-based; settings: Rhodococcus GF578; 3-cyanopyridine = 100
Protocol: as §1, §2, §3

[5] = tested on: Rhodococcus GF376; assay: Substrate specificity of the Rhodococcus strains; format: cell-based; settings: Rhodococcus GF376; 3-cyanopyridine = 100
Protocol: as §1, §2, §3

[6] = tested on: Rhodococcus GF270; assay: Substrate specificity of the Rhodococcus strains; format: cell-based; settings: Rhodococcus GF270; 3-cyanopyridine = 100
Protocol: as §1, §2, §3

[7] = tested on: Rhodococcus rhodochrous J1; assay: Substrate specificity of the Rhodococcus strains; format: cell-based; settings: Rhodococcus rhodochrous J1; 3-cyanopyridine = 100
Protocol: as §1, §3

[8] = tested on: purified nitrile hydratase from NA40; format: biochemical, Amycolatopsis NA40
Protocol: The effect of various inhibitors was determined.

[9] = tested on: Amycolatopsis NA40; assay: Effects of inducers and cofactors on growth and nitrile hydratase activity in the basal medium; format: cell-based
Protocol: (§4) (1) For determination of the nitrile hydratase activity, a reaction mixture (2 ml) containing 3-cyanopyridine (1.0 M, 1.0 ml), potassium phosphate buffer (pH 7.0, 0.1 M, 0.5 ml) and 0.5 ml of cell suspension were incubated at 20° C. for 30 min with stirring. The reaction was stopped by addition of 0.2 ml of 3 N HCl. After centrifuging briefly, the nicotinamide formed was determined by means of HPLC (Shimadzu SPD 6A system using a C18 column (Develosil ODS-HG-5. […]); eluent: 10 mM KH2PO4/H3PO4 (pH 2.8)/acetonitrile 9:1 (v/v); flow rate: 1 ml/min; the absorption was measured at 230 nm). The specific activity was expressed as µmol of nicotinamide formed/ml/min/OD610 nm.
(§5) The reaction rates of aliphatic nitriles in the enrichment medium (Table 1) with isolated bacteria is summarized in Table 5, the effects of inducers and cofactors in the basal medium (Table 2) is summarized in Table 4 and the activity comparison of Amycolatopsis to Rhodoccus in the basal medium (Table 2) is summarized in Table 6.

[10] = tested on: Amycolatopsis NA40; assay: Effect of methanol on resting cells of NA40; format: cell-based; settings: for Relative activity: 10 min
Protocol: The reaction was carried out for 10 min in the presence of 0 20% (v/v) methanol according to Table 13.

[11] = tested on: Actinomadura spadix 45O1; assay: Conversion rates of aliphatic nitriles using the isolated bacteria (enrichment medium); format: cell-based
Protocol: a) Various soil samples were inoculated with various nitriles or amides as a C and N source in the enrichment medium according to Table 1 and incubated at 37° C. or 45° C. for 7 10 days. The cultures were then transferred to the same medium and again cultured at 37° C. for 7 10 days. The whole process was repeated 3 times. The cultures were then diluted and plated out in order to obtain individual colonies. The plates were incubated at 37° C. for 5 days. The different colonies were then tested for the desired activity.
[…] as a C and N source for Amycolatopsis NE31 (DSMZ 11616) Actinomadura spadix E3733 and Actinomadura spadix E3736, azelanitrile served as a C and N source for Amycolatopsis NA40 (DSMZ 11617) and Actinomadura spadix 45A32, n-octanenitrile served as a C and N source for Actinomadura spadix 4501 and cyanoacetic acid served as a C and N source for Actinomadura spadix C15.
as §4, §5

[12] = substance added as inducer to basal medium
[13] = substance added as inducer to basal medium, nicotinamide formed from 3-cyanopyridine, 20° C.
[14] = substance added as cofactor to basal medium
[15] = inhibitor 1 mM, without inhibitor = 100

SMILES	Relative activity, Enzyme reaction [1] [%]	Relative activity [2] [%]	relative activity (substrate specificity) [3] [%]	relative activity (substrate specificity) [4] [%]	relative activity (substrate specificity) [5] [%]	relative activity (substrate specificity) [6] [%]	relative activity (substrate specificity) [7] [%]	further results
N#Cc1cccnc1Cl [2-Chloro-3-cyanopyridine]	90	126						
N#Cc1ccccn1 [2-Cyanopyridine]	221	128	308	200	54.3	15.7	45	
O=C(O)c1cc[c]([Hg][Cl])cc1 [4-Chloromercurobenzoic acid]								Relative activity ([8]; inhibitor 0.1 mM, without inhibitor = 100): 69%
N#Cc1ccncc1 [4-Cyanopyridine]	179	168	231	167	79.8	55.6	70	
Oc1cccc2cccnc12 [8-Hydroxyquinoline]								Relative activity [8]: 110%
CC#N [Acetonitrile]			1.49	347	806	659	608	
N#Cc1ccccc1 [Benzonitrile]	64	51	138	85.1	57.2	13.4	27	
CCCC(N)=O [Butyramide]								Growth (OD610 nm) [9, 12]: 2.19 OD610 nm; Specific activity [9, 12]: 0.88 μmol/ml/min/OD; Total activity [9, 13]: 0.19 µmol/mL/min
O.O.O.O.O.O.[Cl-].[Cl-].[Co+2] [CoCl2•6H2O]								Growth (OD610 nm) [9, 14]: 8.41 OD610 nm; Specific activity [9, 14]: 5.68 μmol/ml/min/OD; Total activity [9, 14]: 47.8 µmol/mL/min
C/C=C/C(N)=O [Crotonamide]								Growth (OD610 nm) [9, 12]: 3.41 OD610 nm; Specific activity [9, 12]: 6.72 μmol/ml/min/OD; Total activity [9, 13]: 22.9 µmol/mL/min
CC=CC#N [Crotononitrile]	67	52	98.0	124	110	37.1	78.2	
CCN(CC)C(=S)S [Diethyl dithiocarbamate]								Relative activity [8, 15]: 89%
O=C(O)CN(CCN(CC(=O)O)CC(=O)O)CC(=O)O [EDTA, ethylenediaminetetra-acetic acid]								Relative activity [8]: 115%
O.O.O.O.O.O.O.O=S(=O)([O-])[O-].[Fe+2] [FeSO4•7H2O]								Growth (OD610 nm) [9, 14]: 8.32 OD610 nm; Specific activity [9, 14]: 0.40 μmol/ml/min/OD; Total activity [9, 14]: 3.36 µmol/mL/min
NO [Hydroxylamine]								Relative activity [8, 15]: 37%
O=C(O)CI [Iodoacetic acid]								Relative activity [8]: 39%
C=C(C)C(N)=O [Methacrylamide]								Growth (OD610 nm) [9, 12]: 3.33 OD610 nm; Specific activity [9, 12]: 0.74 μmol/ml/min/OD; Total activity [9, 13]: 2.46 µmol/mL/min

SMILES	Relative activity, Enzyme reaction [1] [%]	Relative activity [2] [%]	relative activity (substrate specificity) [3] [%]	relative activity (substrate specificity) [4] [%]	relative activity (substrate specificity) [5] [%]	relative activity (substrate specificity) [6] [%]	relative activity (substrate specificity) [7] [%]	further results
C=C(C)C#N [Methacrylonitrile]	125	130	176	122	0	0	86.9	
CCN1C(=O)C=CC1=O [N-ethylmaleimide]								Relative activity [8, 15]: 97%
NNc1ccccc1 [Phenylhydrazine]								Relative activity [8, 15]: 8%
CCC(N)=O [Propionamide]								Growth (OD610 nm) [9, 12]: 1.91 OD610 nm; Specific activity [9, 12]: 0.48 μmol/ml/min/OD; Total activity [9, 13]: 0.92 µmol/mL/min
CCC#N [Propionitrile]	222	105	274	132	245	37.3	434	
NNC(N)=O [Semicarbazide]								Relative activity [8, 15]: 82%
O=S(=O)(O)c1cc(O)c(O)c(S(=O)(=O)O)c1 [Tiron, disodium salt of 4,5-dihydroxy-1,3-benzene-disulphonic acid]								Relative activity [8, 15]: 110%
NC(N)=O [Urea]								Growth (OD610 nm) [9, 12]: 1.72 OD610 nm; Specific activity [9, 12]: 1.73 μmol/ml/min/OD; Total activity [9, 13]: 2.97 µmol/mL/min
N#Cc1cccc(Cl)c1 [m-Chlorobenzonitrile]	90	75	27.8	28.9	8.63	8.41	43	
CO [methanol]								activity of resting NA40 cells ([10]; addition of 5 15% methanol): increased; Relative activity ([10]; methanol 5 % (v/v), 0 % = 100): 123%; Relative activity ([10]; methanol 10 % (v/v)): 128%; Relative activity ([10]; methanol 15 % (v/v)): 130%; Relative activity ([10]; methanol 20 % (v/v)): 105%
CCCC#N [n-Butyronitrile]	101	194	491	368	195	181	352	
CCCCCCCC#N [n-octanenitrile]								Specific activity ([11]; strain 45O1): 4.45 μmol/ml/min/OD; Total activity ([11]; strain 45O1): 32.2 µmol/mL/min; Growth (OD610 nm) ([11]; strain 45O1, nitrile as substrate in enrichment medium): 7.24 OD610 nm
N#Cc1ccccc1Cl [o-Chlorobenzonitrile]	127	96	64.8	49.0	0	0	2.8	
c1cnc2c(c1)ccc1cccnc12 [o-Phenanthroline]								Relative activity [8, 15]: 89%
c1ccc(-c2ccccn2)nc1 [α,α′-Dipyridyl]								Relative activity [8, 15]: 100%
O=C1CCCCCN1 [ε-Caprolactam]								Growth (OD610 nm) [9, 12]: 0.66 OD610 nm; Specific activity [9, 12]: 14.5 μmol/ml/min/OD; Total activity [9, 13]: 9.52 µmol/mL/min
